Measurements from a melting point compilation (Tetko et al.; mined from patent text by program, amines drawn as free bases though some values may be those of a salt).

Row | melting point | SMILES
1 | 55 to 56 °C | Oc1ccc(Oc2ccc(C(F)(F)F)cc2Cl)cc1
2 | 162 °C | C=CCOc1cc(C(O)CS(C)(=O)=O)cc(OCC=C)c1NC(C)=O (stereo unspecified)
3 | 237 to 238 °C | COc1cc2cnc(Cl)nc2cc1OC
4 | 161 to 163 °C | CSc1nc(C)nc(N)n1
5 | 154 to 155 °C | CCOC(=O)c1c(CN2CCCCC2)nc2cc(OCC)c(OCC)cc2c1-c1ccc(OC)c(OC)c1
6 | 209 to 212 °C | O=C(Nc1ccccc1)C1=CNCCC1
7 | 141 to 142 °C | Cc1cccc(C)c1N(CCCC(=O)NCCCC(=O)O)C(=O)c1ccc(Cl)cc1
8 | 215 to 218 °C | O=C(O)CCOc1cccc2c1Cc1sc(S(=O)(=O)CCC(c3ccccc3)c3ccccc3)nc1-2
9 | 152 to 154 °C | NC(=S)c1cn(C2OC(CO)C(O)C2O)nn1 (stereo unspecified)
10 | 175 to 179 °C | ON=Cc1ccc(OCc2csc(-c3ccccc3)n2)cc1
11 | 109 to 111 °C | COc1c(Cl)ccc(-c2nc(C(=O)OC(C)C)c(Cl)c(N)c2F)c1F
12 | 124 to 126 °C | C=CCOC(=O)c1cnc2c(cnn2CCC(C)C)c1N
13 | 114 to 116 °C | CCC(O)c1ccc(-c2ccc(Cl)cc2)cc1 (stereo unspecified)
14 | 156 to 158 °C | CCOCc1nc2c(N)nc3ccccc3c2n1CC1(O)CCCC1
15 | 144 to 145 °C | CCC(C)n1ncn(-c2ccc(N3CCN(c4ccc(OCC(O)(Cn5cncn5)c5ccc(Cl)cc5Cl)cc4)CC3)cn2)c1=O (stereo unspecified)
16 | 117 °C | O=C(OCc1ccccc1)c1cc(OCc2ccccc2)c(OCc2ccccc2)cn1
17 | 152 to 154 °C | CCOC(=O)Cn1cc(C(=O)OCC)c(=O)c2ccccc(=O)c21
18 | 168 to 170 °C | C#CC[C@H](c1nc2cc(Cl)ccc2c(=O)n1Nc1ccccc1)N(CCCN)C(=O)c1cc(F)cc(F)c1F
19 | > 300 °C | N#Cc1cccc2c1ccc1nc(O)c(O)nc12
20 | 89 to 90 °C | CC(=O)CCCc1c[nH]c2ccccc12
21 | 99 to 100 °C | NC(=S)C(F)(F)c1ccccc1
22 | 146 to 148 °C | CC(CCCn1c(C)nc2c(N)nc3ccccc3c21)=NOCc1ccccc1
23 | 200 to 201 °C | O=C(Nc1cccc(F)n1)c1cc(-c2ccc(Cl)cc2)nc2ccccc12

Row | melting point | SMILES
24 | 197 to 198 °C | COC(=O)c1sc2nc(-c3ccccc3)cnc2c1N
25 | 165 to 167 °C | S=C(NCc1ccccc1)Nc1nccs1
26 | 105 to 107 °C | Cc1cc2oc(=O)c3c(c2cc1C)CCN(CC(C)N(C)C)C3 (stereo unspecified)
27 | 126 to 128 °C | C=CCNc1nc(NCCN)nc2ccc([N+](=O)[O-])cc12
28 | 138 °C | O=C1c2ccccc2C(=O)N1CCCCN1CCN(c2ncccn2)CC1
29 | 223 to 226 °C | CON(C)Cc1nc2c(N)nc3ccccc3c2n1CC1CCOCC1
30 | 171 to 173 °C | COc1ccc(Cl)cc1NC(=O)NCC(=O)c1ccccc1
31 | 327 to 332 °C | N#Cc1cccc2c1NC(=O)C2c1ncnc2c1cnn2C1CCCC1 (stereo unspecified)
32 | 104 to 107 °C | CCCCOCCOc1ccc(-c2ccc3c(c2)C=C(C(=O)Nc2ccc(SCc4nncn4CCC)c(C)c2)CCN3CC(C)C)cc1
33 | 183 to 185 °C | Cc1oc2ccc(C3CC(=O)NC(=O)C3)cc2c1C
34 | 62 to 64 °C | COc1ccc(C(C#Cc2ccccc2)CC(C)=O)cc1OC1CCCC1 (racemic)
35 | 103 to 105 °C | CCCCc1nn(-c2cc(N)ccc2Br)c(=O)n1Cc1ccc(-c2ccccc2S(=O)(=O)NC(C)(C)C)cc1F
36 | 175 °C | O=C(NCc1ccccc1)c1ccccc1-c1ccccc1CNS(=O)(=O)c1cccc([N+](=O)[O-])c1
37 | 128 to 129 °C | Cc1cc(Br)cc(C=NO)c1
38 | 144 to 145 °C | CC(C)CCCC(C)C1CC(=O)C2=C3C(F)CC4CC(OC(=O)c5ccccc5)CCC4(C)C3CCC21C (stereo unspecified)
39 | 186 to 190 °C | Oc1ccc2c(-c3ccc(F)cc3F)noc2c1Cl
40 | 239 to 245 °C | CN(C)C=CC(=O)c1c[nH]c2ccccc12
41 | 128 to 129 °C | CC(=O)Oc1c(-c2ccccc2)sc2nc(C(C)(C)C)ccc12
42 | 232 to 233 °C | CSc1ccc(-c2coc3ccc(-c4nnc(N)o4)cc23)cc1Cl
43 | 65 to 70 °C | [N-]=[N+]=NC1CC(n2cnc3c(NC4CC4c4ccccc4)nc(N)nc32)OC1CO (stereo unspecified)
44 | 133 to 139 °C | c1ccc(C(c2ccccc2)N2CCN(CCCCCCNc3ccc4nncn4n3)CC2)cc1
45 | 162 to 163 °C | COc1cc(C(=O)O)ccc1Cc1cn(C)c2ccc(CC(C)NC(=O)N(C)C)cc12 (stereo unspecified)
46 | 143 to 146 °C | CC(C(=O)N(C)C)n1cc(C#N)c(-c2ccccc2)n1 (stereo unspecified)

Row | melting point | SMILES
47 | 78 to 80 °C | CC(C)NCC1COC(=O)C1(c1ccccc1)c1ccccc1 (stereo unspecified)
48 | 282 to 284 °C | O=c1c2c(Cc3ccccc3[N+](=O)[O-])n[nH]c2c2cccnc2n1-c1cccc(C(F)(F)F)c1
49 | 138 to 139 °C | O=C(NCc1ccccc1)OCCc1noc(-c2ccc(CN3CCCCCC3)s2)n1
50 | 181 to 183 °C | Cc1cc(C)c(C(C)(C#N)c2nc(C)nc(Cl)c2C)c(C)c1 (stereo unspecified)
51 | 163 to 165 °C | N#Cc1ccc(NC(=S)Nc2ncccc2OCc2ccccc2)cc1
52 | 234 to 236 °C | Cn1cc(C(=O)NCc2ccc(Cl)cc2)c(=O)c2cc(CN3CCOCC3)cc(C#Cc3ccccn3)c21
53 | 91 °C | CCc1cc(CSCCNC(=C[N+](=O)[O-])NC)oc1CN(C)C
54 | 67 °C | CN(C(=O)COc1nnc(C(F)F)s1)c1ccccc1
55 | 137 to 142 °C | CC(C)(C)Nc1c[nH]c2ccccc12
56 | 116 to 118 °C | COC(=O)CCc1cc(-n2nc3ccc(Br)cc3n2)c(O)c(C(C)(C)C)c1
57 | 152 °C | FC(F)(F)c1ccc2[nH]nc(-c3ccccc3)c2c1
58 | 59 to 61 °C | CC(C)c1nc(C2CCCCC2)cc(-c2ccc(F)cc2)c1C=O
59 | 161 to 170 °C | CN(C)CC(C)(C)CNc1ncc2cc(-c3c(Cl)cccc3Cl)c(NC(=O)NC(C)(C)C)nc2n1
60 | 198 to 199 °C | O=c1ccc2cccc(-c3cccc4ccccc34)c2[nH]1
61 | 191 to 192 °C | CON1CCC2(CC1)C(O)=C(c1cc(C)c(C)cc1Cl)C(=O)N2C
62 | 189 to 194 °C | O=C(NC(=O)c1ccccc1)NC1CCCc2sccc21 (stereo unspecified)
63 | > 200 °C | CSc1cc2c(cc1C(F)(F)F)N(C(=O)Nc1cccc(C(=O)O)c1)CC2
64 | 193 to 196 °C | COc1nc(C)nc(NC(=O)NS(=O)(=O)c2ccccc2C(=O)OC(C)C)n1
65 | 135 to 136 °C | O=[N+]([O-])c1ccc(N=Nc2ccc(N(CC3CO3)CC3CO3)cc2)cc1 (stereo unspecified)
66 | > 300 °C | CCC(C)NC(C(=O)O)C(C)C (stereo unspecified)
67 | 140 °C | O=S1(=O)c2cccc3cccc(c23)N1CCCN1CCC(CC2C=Cc3ccccc32)CC1 (stereo unspecified)
68 | 271 to 272 °C | O=c1[nH]sc2cc(Cl)ccc12
69 | 163 to 166 °C | COc1cncnc1N1CCN(CCCc2c[nH]c3ccc([N+](=O)[O-])cc23)CC1

Row | melting point | SMILES
70 | 152 to 153 °C | COCCn1cc(-c2ccccc2)[nH]c1=O
71 | 231 to 234 °C | CN=C(NC#N)N1CCc2nc(N)sc2C1
72 | 167 to 170 °C | OCc1c(F)cccc1NC1CCN(Cc2ccccc2)CC1
73 | 144 °C | COc1ccc(N2C(=O)C(C)(C)N(c3ccc(Oc4ccccc4)cc3)C2=S)cc1
74 | 201 °C | Cc1nn(-c2c(Cl)cc(C(F)(F)F)cc2Cl)c(Cl)c1C=O
75 | 87 to 91 °C | Cc1ccccc1-c1cn(C)cc(-c2ccccc2Cl)c1=O
76 | 78 °C | COC(=O)CCSc1cc(=O)c2c(O)cc(O)c(C3CCN(C)CC3O)c2o1 (stereo unspecified)
77 | 214 to 219 °C | O=C1COc2cc(F)c(F)cc2N1
78 | 262 to 264 °C | O=c1[nH]c2cc(C(F)(F)F)c([N+](=O)[O-])cc2n1-c1cc(Cl)cc(Br)c1O
79 | 94 to 95 °C | O=C(O)CCCS(=O)(=O)c1ccccc1
80 | 168 to 169 °C | COC(=O)C[C@H]1[C@H](C(=O)N(C)OC)C(=O)N1C(c1ccccc1)(c1ccccc1)c1ccccc1
81 | 66 to 68 °C | Cc1cc(C)c2cccc(Cl)c2n1
82 | 47 to 48 °C | c1ccc(Sc2ccc(Sc3ccccc3)s2)cc1
83 | 315 to 320 °C | COc1cccc2c(=O)c3c(Cl)ccc([N+](=O)[O-])c3[nH]c12
84 | 126 to 127 °C | CC(=O)OCc1cccc2c1nc(-c1c(F)cccc1F)n2Cc1c(F)cccc1F
85 | 138 to 140 °C | COc1ccc(C(=O)C2CCN(C(C)=O)CC2)c(O)c1
86 | 139 to 140 °C | Cc1nnc(-c2ccc3occ(-c4ccc(OS(C)(=O)=O)cc4)c3c2)o1
87 | 91 to 93 °C | CCCCCCCCCCCc1nnc2n1-c1sc(CC)cc1C(c1ccc(OC)cc1)OC2 (stereo unspecified)
88 | 91 to 93 °C | CCCCc1nn(-c2ccccc2C(F)(F)F)c(=O)n1Cc1ccc(-c2ccccc2S(=O)(=O)NC(=O)c2ccccc2)cc1
89 | 323 to 324 °C | Cc1cnc2c(cc(C(N)=O)c3nncc32)c(-c2ccccc2F)n1
90 | 128 to 130 °C | CC(C)(C)OC(=O)N(O)C(=O)[C@H](N)COCc1ccccc1
91 | 100 to 104 °C | Nc1ncccc1OCc1cc2c(cc1Cl)OCO2
92 | 56 to 57 °C | COc1ccc(C(C#Cc2ccccc2)Cc2nc(C)co2)cc1OC1CCCC1 (racemic)

Row | SMILES | melting point
93 | Cc1cc2cn[nH]c2c(C(=O)NC2(C3CC3)CC2)c1NC(=O)c1cc(OCC(F)(F)F)nn1-c1ncccc1Cl | 240 to 242 °C
94 | O=P1(c2ccccc2)NCc2ccccc21 (stereo unspecified) | 177 to 180 °C
95 | O=C1CN=C(c2cccc(Cl)c2)c2cc(C(=O)c3ccc(Cl)cc3)ccc2N1 | 265 °C
96 | Cc1cn2c(n1)CN=C(c1ccccc1Cl)c1cc(Cl)ccc1-2 | 170 °C
97 | CN1Cc2c(I)ncn2-c2cccc(Br)c2C1=O | 203 to 204 °C
98 | Fc1ccc(-c2cccc(-c3cn([C@H]4CN5CCC4CC5)nn3)c2)cn1 | 164 °C
99 | CNCCc1c[nH]c2ccc3c(=O)[nH]ccc3c12 | 160 °C
100 | CN(CCNC(N)=N[N+](=O)[O-])c1ccc(Cl)nc1 | 119 to 122 °C
101 | CCCCCCc1cc2c(s1)NC(=O)CN=C2c1ccccc1OC | 130 to 132 °C
